The source of these data is BindingDB's records for patent US20240400586 (Haisco Pharmaceutical Group, 2024).

The target in the test is Poly [ADP-ribose] polymerase 1 (Homo sapiens, UniProt P09874). Briefly: PARP1 Enzyme Activity Assay.
Sequence of Poly [ADP-ribose] polymerase 1 (P09874 whole entry): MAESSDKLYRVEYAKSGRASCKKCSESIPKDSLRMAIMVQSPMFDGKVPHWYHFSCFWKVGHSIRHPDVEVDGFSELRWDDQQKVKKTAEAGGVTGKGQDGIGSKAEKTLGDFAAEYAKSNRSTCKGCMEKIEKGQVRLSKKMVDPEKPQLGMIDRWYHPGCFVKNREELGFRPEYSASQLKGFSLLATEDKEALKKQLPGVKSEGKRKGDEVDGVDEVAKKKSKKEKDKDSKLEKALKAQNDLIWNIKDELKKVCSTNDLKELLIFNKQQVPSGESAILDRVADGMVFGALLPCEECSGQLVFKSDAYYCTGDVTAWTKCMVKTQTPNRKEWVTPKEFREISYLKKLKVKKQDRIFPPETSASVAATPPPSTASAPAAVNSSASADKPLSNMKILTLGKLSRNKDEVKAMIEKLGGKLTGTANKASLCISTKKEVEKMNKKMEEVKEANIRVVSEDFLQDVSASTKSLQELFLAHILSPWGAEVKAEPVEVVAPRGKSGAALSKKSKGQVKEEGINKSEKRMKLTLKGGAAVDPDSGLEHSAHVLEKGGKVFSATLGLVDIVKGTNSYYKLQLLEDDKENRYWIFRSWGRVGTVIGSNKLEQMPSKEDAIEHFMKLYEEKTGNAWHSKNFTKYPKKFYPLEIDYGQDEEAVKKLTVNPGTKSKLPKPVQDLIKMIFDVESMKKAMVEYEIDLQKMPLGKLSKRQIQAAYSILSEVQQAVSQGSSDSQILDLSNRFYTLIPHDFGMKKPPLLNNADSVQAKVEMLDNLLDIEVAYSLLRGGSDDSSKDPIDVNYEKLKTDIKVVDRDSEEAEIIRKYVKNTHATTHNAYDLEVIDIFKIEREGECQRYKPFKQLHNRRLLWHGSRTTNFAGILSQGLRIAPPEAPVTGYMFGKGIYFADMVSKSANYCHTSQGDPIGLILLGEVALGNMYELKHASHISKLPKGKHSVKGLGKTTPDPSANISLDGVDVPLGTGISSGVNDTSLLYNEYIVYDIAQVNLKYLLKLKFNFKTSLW

Protocol: The histone solution in the kit was diluted 5× with 1×PBS, and 25 μL of the diluted histone solution was added to a microwell plate and incubated overnight at 4° C. After the incubation, the plate was washed three times with PBST (0.05% Tween-20). 100 μL of the blocking solution was added to the microwell plate and incubated at 25° C. for 90 minutes. After the incubation, the plate was washed three times with PBST. 2.5 μL of compounds at different concentrations diluted in test buffer and 12.5 μL of substrate mixed solution (1.25 μL 10×PARP test buffer; 1.25 μL 10×PARP test mixed solution; 2.5 μL Activated DNA, 7.5 μL double-distilled water) were added to the microwell plate. The PARP1 enzyme was diluted to 2 ng/μL, 10 μL of the diluent was added to the microwell plate, and the reaction system was incubated at 25° C. for 60 minutes.After the incubation, the plate was washed three times with PBST. Streptavidin-HRP was diluted 50× with a blocking solution, and 25 μL of the diluent was added to the microwell plate and incubated at 25° C. for 30 minutes. After the incubation, the plate was washed three times with PBST. ELISA ECL substrate A and substrate B were mixed at a ratio of 1:1 (v/v), 50 μL of the mixture was added to the microwell plate, and the chemiluminescence value was read.

The compound `CCC1CC2N=CC(CN3CCN(C4C=CC(C(=O)N[C@@H]5C[C@@H]5F)=NC4)CC3)=CC2NC1=O` (stereo partly drawn) [US20240400586, Compound 11] displayed an IC50 of 0.54 nM.

The compound `CCC1Cc2ncc(CN3CCN(C4CN5C=C(C)NC5C=N4)CC3)cc2NC1=O` (stereo not drawn) [US20240400586, Compound 15] showed an IC50 of 0.65 nM.

For `CCC1=CC2N=CC(CN3CCN(c4ccc(C(=O)NC5CCC5)nc4)CC3)CC2NC1=O` (stereo not drawn) [US20240400586, Compound 10], half-maximal inhibition (IC50) required 0.56 nM.
